# According to patent publication US8338454B2, “Nitrile derivatives and their pharmaceutical use and compositions” (Cellceutix Corporation, priority 2009, dated 2012):
# Like-named read-outs stand apart in the source and are kept apart here.
# Experiments:
# Colo 205 = experiment: Cytotoxicity of Kevetrin, cell viability (MTT); type: cell-based; settings: Homo sapiens; Colo 205 colon carcinoma; continuous exposure for three doubling times; read-out: IC50 Concentration
# Description: (§1) The results are set forth below.
# DU-145 = experiment: Cytotoxicity of Kevetrin, cell viability (MTT); type: cell-based; settings: Homo sapiens; DU-145 prostate carcinoma; continuous exposure for three doubling times; read-out: IC50 Concentration
# Description: as §1
# HCT-116 = experiment: Cytotoxicity of Kevetrin, cell viability (MTT); type: cell-based; settings: Homo sapiens; HCT-116 colon carcinoma; continuous exposure for three doubling times; read-out: IC50 Concentration
# Description: as §1
# HT-29 = experiment: Cytotoxicity of Kevetrin, cell viability (MTT); type: cell-based; settings: Homo sapiens; HT-29 colon carcinoma; continuous exposure for three doubling times; read-out: IC50 Concentration
# Description: as §1
# LnCap = experiment: Cytotoxicity of Kevetrin, cell viability (MTT); type: cell-based; settings: Homo sapiens; LnCap prostate carcinoma; continuous exposure for three doubling times; read-out: IC50 Concentration
# Description: as §1
# MCF-7 = experiment: Cytotoxicity of Kevetrin, cell viability (MTT); type: cell-based; settings: Homo sapiens, MCF7; MCF-7 breast carcinoma; continuous exposure for three doubling times; read-out: IC50 Concentration
# Description: as §1
# SCC 15 = experiment: Cytotoxicity of Kevetrin, cell viability (MTT); type: cell-based; settings: Homo sapiens; SCC 15 squamous cell carcinoma; continuous exposure for three doubling times; read-out: IC50 Concentration
# Description: as §1
# SCC-61 = experiment: Cytotoxicity of Kevetrin, cell viability (MTT); type: cell-based; settings: Homo sapiens; SCC-61 squamous cell carcinoma; continuous exposure for three doubling times; read-out: IC50 Concentration
# Description: as §1
# SKOV-3 = experiment: Cytotoxicity of Kevetrin, cell viability (MTT); type: cell-based; settings: Homo sapiens, SK-OV-3; SKOV-3 ovarian carcinoma; continuous exposure for three doubling times; read-out: IC50 Concentration
# Description: as §1
# SW-480 = experiment: Cytotoxicity of Kevetrin, cell viability (MTT); type: cell-based; settings: Homo sapiens, SW480; SW-480 colon carcinoma; continuous exposure for three doubling times; read-out: IC50 Concentration
# Description: as §1
# malignant glioma cells = experiment: Viability of human tumor cell lines; type: cell-based
# Description: as §1
# [1] = tested on: all tumor cell lines tested; experiment: Activity spectra, MTT assay; type: cell-based, human; settings: read-out: average IC50 for all cell lines tested
# Experimental: The indicated values are calculated as follows: log(IC50 individual cell line−IC50 average). Negative values indicate that the cell line is more sensitive than the average, whereas positive values indicate that the cell line is more resistant than the average.
# (§2) The indicated values are calculated as follows: log(IC50 individual cell line−IC50 average). Negative values indicate that the cell line is more sensitive than the average, whereas positive values indicate that the cell line is more resistant than the average. […] The activity of Kevetrin was more marked than that of cisplatin toward lung, head and neck, breast, ovary, and colon cell lines.
# [2] = tested on: DU-145, HCT-116, or HT-29 carcinoma cells; experiment: Time dependence of Kevetrin cytotoxicity, MTT assay; type: cell-based, human; settings: exposure 5 minutes to 120 hours; DU-145, HCT-116, HT-29
# Experimental: Human carcinoma cells were exposed to different concentrations of Kevetrin for 5, 10, 20, 30, or 45 minutes or 1, 2, 6, 24, or 120 hours. Cellular viability expressed as IC50 was plotted verses time of Kevetrin exposure as measured using the MTT assay.
# To determine the influence of exposure time on the cytotoxic effects of Kevetrin, DU-145, HCT-116, or HT-29 carcinoma cells were exposed to different concentrations of Kevetrin for 5, 10, 20, 30, or 45 minutes or 1, 2, 6, 24, or 120 hours. […] The time dependence was particularly dramatic for exposure times […]. In contrast, extending the drug exposure time beyond 24 hours had no influence on the cytotoxicity.
# [3] = tested on: head and neck cancer cell lines; experiment: Activity spectra, MTT assay; type: cell-based, human; settings: three head and neck cancer cell lines
# Experimental: as §2
# leukemias = experiment: Activity spectra, MTT assay; type: cell-based, human
# Experimental: as §2
# [4] = Weight loss due to Kevetrin in tumor bearing mice; type: in vivo
# Experimental: Animal weights of mice following treatment with either 100 or 200 mg/kg Kevetrin IV on Day 0 are shown.
# (§3) The mice were observed daily for any adverse affects. Mice body weights were taken prior to treatment and every other day during and post treatment. If an animal became unwell, any treatment of that animal was suspended. If there was no recovery, the animal was sacrificed. […] Mice tumor size measurements were taken prior to treatment and every other day during and post treatment. The same scientist was responsible for taking the tumor measurements throughout the study.
# (§4) The dosing procedure began the day the mice were randomized and grouped. The dose was administered, as discussed in the following paragraph, on days 7, 9 and 11 following tumor implantation. Each dose was administered via the tail vein.
# When Kevetrin was administered intravenously (IV) to animals bearing tumors, the weight loss due to the administration of the compound was within acceptable limits. […] Both these concentrations may be used to establish the efficacy of Kevetrin.
# [5] = tested on: MDA-MB-231 human breast carcinoma; experiment: Xenograft efficacy in nude mice; type: in vivo
# Experimental: MDA-MB-231 human breast carcinoma bearing mice were treated with 200 mg/kg Kevetrin IV days 7, 9, and 11 compared to 22 mg/kg Taxol IV Days 7, 9, 11 and 13.
# (§5) The cells were cultured in 10% FBS RPMI medium. The cells were obtained at passage 5 for further expansion for this efficacy study. Nude mice (Nu/Nu), both male (20 to 24 g) and female (19 to 22 g), were purchased at 6 to 8 weeks old from Charles River Laboratories. These mice were naïve at the beginning of the study and were identified by ear punching. The mice were left for five days to become acclimated to their new environment. Mice were implanted with human tumor cells in a 50:50 mix of RPMI:Matrigel subcutaneously in the right flank of each mouse. Dosing began when tumors reached an average volume of 100 mm^3.
# as §3
# (§6) Nude mice were implanted with 5×10^6 tumor cells in a 50:50 mix of RPMI:Matrigel subcutaneously in the right flank of each mouse. […]
# HT-29 colon carcinoma = experiment: Xenograft efficacy in nude mice; type: in vivo
# Experimental: HT-29 tumor bearing nude mice were treated with either 200 mg/kg Kevetrin IV or 5-FU on Days 7, 9, and 11.
# as §5, §3, §6
# [6] = tested on: PC-3 human prostate cancer; experiment: Xenograft efficacy in nude mice; type: in vivo
# Experimental: PC-3 tumor bearing nude mice were treated with either 200 mg/kg Kevetrin IV on Days 7, 9, 11 or 10 mg/kg cisplatin on Day 7.
# as §5, §3, §6
# [7] = tested on: HCT-15 human colon carcinoma with P-glycoprotein mediated resistance; experiment: Xenograft efficacy in nude mice; type: in vivo
# Experimental: HCT-15 tumor bearing nude mice were treated with either 200 mg/kg Kevetrin IV on Days 7, 9, 11 or 22 mg/kg Taxol on Days 7, 9, 11 and 13 post tumor.
# [8] = tested on: A549 multi-drug resistant human lung carcinoma; experiment: Xenograft efficacy in nude mice; type: in vivo
# Experimental: Nude mice were implanted with 5×10^6 tumor cells in a 50:50 mix of RPMI:Matrigel subcutaneously in the right flank of each mouse. Dosing began when tumors reached an average volume of 100 mm^3, usually reached by day 14 post implant, and was carried out for 8 days. […]
# [9] = tested on: NCI-H1975 multi-drug resistant human lung carcinoma; experiment: Xenograft efficacy in nude mice; type: in vivo
# Experimental: as §5, §3
# Nude mice were implanted with 5×10^6 tumor cells in a 50:50 mix of RPMI:Matrigel subcutaneously in the right flank of each mouse. Dosing began when tumors reached an average volume of 100 mm^3, usually reached by day 14 post implant, and was carried out for 8 days. A necropsy was performed 41 days after treatment ended.
# as §4
# Efficacy of Kevetrin 200 mg/kg Days 7, 9, & 11 Against Taxol at 22 mg/kg on Days 7, 9, 11 & 13 in NCI-H1975 Multi-Drug Resistant Human Lung Carcinoma.
# The animals were implanted subcutaneously with another multi-drug resistant human lung carcinoma and the compounds were injected IV as per the schedule. […] The tumor growth was delayed about 9 days for Taxol treated animals and about 24 days more than the untreated controls. The results are depicted in FIG. 9.
# [10] = 200 mg/kg Kevetrin IV days 7, 9, 11
# [11] = Taxol 22 mg/kg IV days 7, 9, 11, 13
smiles,measurement,setting,value
"Cl.N#CCCCSC(=N)N [Kevetrin, S-(3-cyanopropyl)isothiourea hydrochloride]",IC50,Colo 205,6 µg/mL
same,IC50,DU-145,64 µg/mL
same,IC50,HCT-116,21 µg/mL
same,IC50,HT-29,29 µg/mL
same,IC50,LnCap,52 µg/mL
same,IC50,MCF-7,68 µg/mL
same,IC50,SCC 15,12 µg/mL
same,IC50,SCC-61,64 µg/mL
same,IC50,SKOV-3,58 µg/mL
same,IC50,SW-480,62 µg/mL
same,IC50,malignant glioma cells,~0.03 µg/mL
same,IC50,[1]; Homo sapiens,490 nM
same,time dependence of cytotoxicity,[2],Clear time-dependent cytotoxic effects
same,activity toward head and neck cancer cell lines,[3],showed activity toward all of the cell lines
same,activity toward leukemias,leukemias,comparatively limited activity
same,weight loss of the body weight,"[4]; 100 mg/kg intravenously on days 7, 9, and 11, tumor bearing mice",6.8%
same,weight loss of the body weight,"[4]; 200 mg/kg intravenously on days 7, 9, and 11, tumor bearing mice",9.3%
same,tumor growth delay more than the untreated control,[5]; [10],32 days
same,tumor growth delay more than the Taxol treated animals,"[5]; 200 mg/kg Kevetrin IV days 7, 9, 11 vs 22 mg/kg Taxol IV days 7, 9, 11, 13",12 days
same,tumor growth delay more than the untreated control,HT-29 colon carcinoma; [10],33 days
same,tumor growth delay more than the 5-FU treated animals,"HT-29 colon carcinoma; 200 mg/kg Kevetrin IV days 7, 9, 11 vs 5-FU",10 days
same,tumor growth delay more than the untreated control,[6]; [10],34 days
same,tumor growth delay more than the Cisplatin treated animals,"[6]; 200 mg/kg Kevetrin IV days 7, 9, 11 vs 10 mg/kg Cisplatin IP day 7",8 days
same,tumor growth delay more than the Taxol treated and the untreated control,[7]; [10],15 days
same,tumor growth delay more than the untreated controls,[8]; [10],about 26 days
same,tumor growth delay more than the untreated controls,[9]; [10],about 24 days
"N.N.[Cl][Pt][Cl] [cisplatin, reference compound]",IC50,"[1]; MTT assay, continuous exposure for three doubling times",2100 nM
same,activity toward head and neck cancer cell lines,[3],active toward one of the three cell lines
"CC(=O)O[C@H]1C(=O)[C@@]2(C)[C@H]([C@H](OC(=O)c3ccccc3)[C@]3(O)C[C@H](OC(=O)[C@H](O)[C@@H](NC(=O)c4ccccc4)c4ccccc4)C(C)=C1C3(C)C)[C@]1(OC(C)=O)CO[C@@H]1C[C@@H]2O [Taxol, reference compound]",effect on the cancer (in words),[7]; [11],little effect
same,effect on the cancer (in words),[8]; [11],no effect
same,effect on the cancer (in words),[9]; [11],limited effect
same,tumor growth delay,[9]; [11],about 9 days
